A short description of this data set: Human HepG2 cell viability assay in 384 well format. The conditions noted are these: HepG2 cells, read-out: Inhibition. More on the design: dose 125 nL, time 70.5 hour; cytotoxicity at 70.5 h: concentration not given beside the values. Format: toxicity, cell-based.

Cytotoxicity data for 102 molecules are collected here from ChEMBL document CHEMBL3507680, “University of Dundee, Gates Library screen for HepG2 cell viability”.

`Cc1cnn(CC2CCCCN2CCCS(C)(=O)=O)c1` (configuration not stated): the cytotoxicity at 70.5 h was -2.88%.
In the case of `COc1ccc(C(=O)N2CCCC(n3cc(C)cn3)C2)c(F)c1` (configuration not stated) it was -3.25%.
For `Cc1ncncc1C(=O)N1CCCC(n2cccn2)C1` (configuration not stated), the cytotoxicity at 70.5 h turned out to be 8.65%.
As for `COc1ccc(CC(=O)N2CCCC(n3cc(C)cn3)C2)c(OC)c1` (configuration not stated), the cytotoxicity at 70.5 h was -6.34%.
Take `Cc1cnn(CC2CCCN2CCCS(C)(=O)=O)c1` (configuration not stated): the cytotoxicity at 70.5 h is -2.25%.
For `Cn1cc(CCC(=O)N2CCCC(n3cncn3)C2)cn1` (configuration not stated), the cytotoxicity at 70.5 h is -0.386%.
Under `COc1ccc(CC(=O)N2CCCC(n3cccn3)C2)cc1F` (configuration not stated) stands -6.84%; under `CCc1nc(C2CCCN2C(=O)c2ccc3c(c2)COC3)no1` (configuration not stated), -2.9%; under `NC(=O)C1CCN(C(=O)NCc2ccccc2-n2cccn2)C1` (configuration not stated), -4.02%.
In the case of `O=C(c1ccn(-c2ccccc2)n1)N1CCCC(n2cccn2)C1` (configuration not stated) it was -0.6%; in that of `CN(C(=O)Cc1ccc(F)cc1)C1CCN(c2ccccn2)CC1`, -1.36%; in that of `CCNc1cc2c(nn1)CCN(C(=O)c1cc3ccccc3o1)C2`, -6.18%.
For `Cc1cnn(CC2CCCCN2C(=O)c2ccc3nncn3c2)c1` (configuration not stated), the cytotoxicity at 70.5 h is -3.43%.
Under `CCc1nc(C2CCCN2C(=O)c2ccc3c(c2)nnn3C)no1` (configuration not stated) stands 16.3%; under `Cc1nc(CC(=O)N2CCCCC2Cn2cccn2)cs1` (configuration not stated), 25.2%.
In the case of `Cc1cnc(CN(C)C2CCN(Cc3nc4ccccc4s3)C2)o1` (configuration not stated) it was 51.7%.
Under `Cc1ccc(C(=O)N(C)Cc2cc(C)on2)cn1` stands -2.86%.
As for `CCN1CCN(c2ccc(CNC(=O)c3cnn(C)c3C)cn2)CC1`, the cytotoxicity at 70.5 h was -8.48%.
Take `CCOc1ncccc1CNC(=O)NC(C)Cn1cccn1` (configuration not stated): the cytotoxicity at 70.5 h worked out at 25.9%.
Under `Cc1cc(CN(C)C(=O)c2ccc(N(C)C)nc2)no1` stands -7.16%; under `COc1ccccc1N1CCN(C(=O)NC(C)c2nncn2C)CC1` (configuration not stated), -5.73%; under `CC(NC(=O)N(C)CCCOc1ccccc1)c1nncn1C` (configuration not stated), -5.85%.
In the case of `COc1ncccc1CNC(=O)NCCNS(C)(=O)=O` it was -2.56%; in that of `CC(NC(=O)N(C)CCOc1ccccc1F)c1nncn1C` (configuration not stated), -4.64%; in that of `Cc1ccccc1OCCN(C)C(=O)NC(C)c1nncn1C` (configuration not stated), -6.52%.
For the molecule `CCOc1ccc(C(=O)N2CCCS2(=O)=O)cc1OC`, the cytotoxicity at 70.5 h was -4.2%.
In the case of `Cc1cccc(N2CCN(C(=O)NC(C)c3nncn3C)CC2)c1C` (configuration not stated) it was -3.82%; in that of `CC(NC(=O)N1CCN(c2ccccc2O)CC1)c1nncn1C` (configuration not stated), 1.59%; in that of `CCN1CCN(c2ccc(CNC(=O)c3ccccc3F)cn2)CC1`, -0.777%.
In the case of `Cc1ccc(C)c(S(=O)(=O)CCN2CCc3c(ncn3C)C2)c1` it was 16%; in that of `CCCC(=O)N(C)CC(=O)Nc1ccc(Br)cn1`, -2.34%.
Under `c1cnn(CC2CCCCN2Cc2nc(-c3ccsc3)no2)c1` (configuration not stated) stands -4.27%; under `CCc1nc(C2CCCN2C(=O)c2cnc[nH]2)no1` (configuration not stated), -7.25%; under `Cc1cc(NC(=O)CN(CC2CCOC2)C2CC2)no1` (configuration not stated), 0.647%.
Regarding `CCc1nc(C2CCCN2C(=O)c2ccc(N3CCCC3)nn2)no1` (configuration not stated), the cytotoxicity at 70.5 h was -3.36%.
Under `CC(C)c1noc(C(C)N2CCN(Cc3nnc(C4CC4)o3)CC2)n1` (configuration not stated) stands -3.65%; under `Cc1nc(C2CCCN(C(=O)COCc3ccccc3)C2)no1` (configuration not stated), -12.6%.
Under `Cc1nc(C)n(CC2CN(CCCOc3ccc(F)cc3)CCO2)n1` (configuration not stated) stands -17.9%; under `CS(=O)(=O)c1cccc(C(=O)NCCCN2CCc3ccccc3C2)c1`, 19.1%; under `Cc1nc(C)n(CC2CN(CCOc3cccc(F)c3)CCO2)n1` (configuration not stated), -9.64%.
In the case of `C1CN(Cc2noc(C3CC3)n2)CCN(Cc2nnc(C3CC3)o2)C1` it was 15.4%.
`CC(Cn1cccn1)NC(=O)CCC(=O)c1cccs1` (configuration not stated): the cytotoxicity at 70.5 h was -11.2%.
In the case of `Cn1ccc(C(=O)NCc2ccc(N3CCCCCC3)nc2)cc1=O` it was -12.5%; in that of `CCn1ccnc1CN1CCN(CC(=O)NC(=O)NC2CC2)CC1`, -8.53%.
For the molecule `COc1ccc(OC)c(CCNC(=O)NC(C)Cn2ccnc2)c1` (configuration not stated), the cytotoxicity at 70.5 h was 22%.
Regarding `CCOCC(O)CN1CCN(C(=O)Cc2ccccc2C)CC1` (configuration not stated), the cytotoxicity at 70.5 h is -1.93%.
Take `COc1ccccc1CCNC(=O)CN1CCCC1c1noc(C)n1` (configuration not stated): the cytotoxicity at 70.5 h was -3.07%.
Under `Cc1cc(C)c(OCC(=O)NS(=O)(=O)c2cccnc2)c(C)c1` stands -3.3%.
Under `Cc1oc(C)c(C(=O)NCc2cccnc2N(C)C)c1C` stands -12.5%; under `Cc1cc(C)n(CC(=O)N2CCC(NS(C)(=O)=O)CC2)n1`, -11.4%; under `CC(Cc1ccco1)NC(=O)Nc1ccc(N2CCOCC2)nc1` (configuration not stated), -4.87%.
In the case of `COc1cc(CNC(=O)Nc2cc(C(F)(F)F)c[nH]c2=O)ccn1` it was 1.69%; in that of `N#Cc1cn(C2CC2)c(=O)n(CC(O)c2ccc(OC(F)F)cc2)c1=O` (configuration not stated), -17.5%.
Turning to `Cc1cc(NC(=O)NCC(C)O)n(C)n1` (configuration not stated), the cytotoxicity at 70.5 h was 0.0779%.
Under `Cc1cc(C)c(CNC(=O)N2CCN(c3cnccn3)CC2)c(=O)[nH]1` stands -4.71%; under `CCn1ccnc1CN1CCN(C(C)C(=O)NC2CCCCC2)CC1` (configuration not stated), 33.2%.
Under `O=C(c1cccc2c1OCCO2)N1CCCC(n2ccnc2)C1` (configuration not stated) stands -5.73%; under `Cc1cc(NC(=O)NCC(O)c2ccc(Cl)cc2Cl)n(C)n1` (configuration not stated), -11.8%.
In the case of `Cc1nnc2n1CCN(C(=O)c1cc(Cl)c(Cl)n1C)C2` it was -3.86%.
Take `CCc1nc(CC(=O)N2CCn3c(nnc3C(C)C)C2)cs1`: the cytotoxicity at 70.5 h was determined as 0.586%.
In the case of `CCOCC(O)CN1CCN(C(=O)Cc2ccccc2Cl)CC1` (configuration not stated) it was -0.667%.
In the case of `CCc1nc(CC(=O)N2CCn3c(nnc3C(F)(F)F)C2)cs1` it was -7.01%; in that of `COc1ccccc1CC(=O)NCc1c(C)nc2cc(=O)[nH]n2c1C`, -8.5%; in that of `c1ccc(-c2noc(CN3CCc4cncnc4C3)n2)nc1`, -9.29%.
Under `Cc1nc(C2CCCN2CC(=O)NCCOc2ccccc2)no1` (configuration not stated) stands 0.566%; under `COc1cc(CNc2cnn(C)c2)cc2c1OCCO2`, -4.12%.
As to `Cc1ncsc1C(=O)N(C)Cc1cccc(Cl)c1`, the cytotoxicity at 70.5 h was found to be 9.51%.
In the case of `O=C(Cn1nc(-c2ccc(F)cc2)oc1=O)Nc1ccccc1` it was 13.9%.
For `Cc1ccc(C(=O)Nc2cn[nH]c2)cn1`, the cytotoxicity at 70.5 h is -1.81%.
In the case of `Cc1cc(CN(C)C(=O)NC2CCN(Cc3ccccc3)C2)no1` (configuration not stated) it was 7.2%; in that of `CN(Cc1ccccc1O)C(=O)NC1CCCN(c2ncccn2)C1` (configuration not stated), 22.3%.
In the case of `CCn1cc(NC(=O)NCC(O)COc2cccc(F)c2)cn1` (configuration not stated) it was -4.45%; in that of `CCN(CC)C(=O)Cn1ccc2cc(NC(=O)C3CCCO3)ccc21` (configuration not stated), 7.81%.
Under `CC(=O)c1cccc(OCCCC(=O)NCC2CCCN2C)c1` (configuration not stated) stands 7.09%.
For `CC(Cn1ccnc1)NC(=O)N1CCN(Cc2cccnc2)CC1` (configuration not stated), the cytotoxicity at 70.5 h worked out at 0.583%.
Under `Cc1nc(CNC(=O)Cn2nc(-c3ccc(F)cc3)oc2=O)cs1` stands 0.339%; under `CSc1sc(NC(=O)Cc2c(C)nc(C)[nH]c2=O)nc1C`, 3.66%.
Take `O=C(Nc1ncn(CC(=O)N2CCCCCC2)n1)C1CCCO1` (configuration not stated): the cytotoxicity at 70.5 h turned out to be 2.64%.
For the molecule `NC(=O)c1cnn2c1NCC(CNCCCOc1ccccc1F)C2` (configuration not stated), the cytotoxicity at 70.5 h worked out at 6.81%.
Under `Cc1ccc(C(=O)N2CCN(C(=O)NC(C)Cn3ccnc3)CC2)o1` (configuration not stated) stands -4.96%.
In the case of `CC(C)c1nnc2n1CCN(C(=O)CN1Cc3ccccc3C1=O)C2`, the cytotoxicity at 70.5 h worked out at 4.15%.
Under `NC(=O)c1cnn2c1NCC(CNCCc1ccco1)C2` (configuration not stated) stands -1.07%; under `Cc1cnn(CC2CCCCN2Cc2noc(C3CC3)n2)c1` (configuration not stated), -6.32%; under `Cc1nc(C)n(CC2CN(c3nnc(C)c(C)c3C#N)CCO2)n1` (configuration not stated), 5.76%.
Under `CNS(=O)(=O)c1ccc(C(=O)NC2CCc3nc(C)cn3C2)o1` (configuration not stated) stands -6.79%; under `Cc1cn2c(n1)CCC(NC(=O)c1ccc(CS(C)(=O)=O)cc1)C2` (configuration not stated), -1.89%.
Under `CN(C(=O)NCc1ccncc1)C1CCN(c2ccccc2)C1=O` (configuration not stated) stands 11.5%; under `O=C(Nc1ccccc1F)N(CCO)Cc1ccsc1`, 31.8%.
Take `Cc1ncsc1C(=O)N(C)CCc1ccncc1`: the cytotoxicity at 70.5 h is -2.51%.
In the case of `CC(=O)N1CCN(Cc2csc(-c3cnn(C)c3)n2)CC1` it was 2.34%; in that of `CC(C)c1nnc2n1CCN(CC(=O)N1CCc3ccccc3C1)C2`, 11.4%; in that of `Cn1cc(Cl)cc1C(=O)N1CCN(Cc2ccsc2)CC1`, 0.559%.
Under `Cc1nn(C)c(C)c1CC(=O)N1CCC(N(C)c2cccnn2)CC1` stands 20.4%; under `COCC(c1cccc(C(F)(F)F)c1)N(C)C(=O)c1cc(C)no1` (configuration not stated), 20%; under `COCC(=O)NCc1cccc(Br)c1`, 19.4%.
Under `O=C(CN1CCC(c2cccc(F)c2)C1)NCC(F)(F)F` (configuration not stated) stands 26.9%.
On to `Cc1nc(C2CCCN2CCCS(=O)(=O)N(C)C)no1` (configuration not stated), for which the cytotoxicity at 70.5 h was 22.2%.
For `CCCn1[nH]cc/c1=N\C(=O)CN1CCn2c(nnc2C2CC2)C1`, the cytotoxicity at 70.5 h came to 8.11%.
In the case of `CCN1CCN(C(=O)c2cc(C(=O)OC)nn2-c2ccccc2)CC1` it was 0.312%; in that of `CSCCCN1CCCC1c1noc(C)n1` (configuration not stated), 1.11%; in that of `Cc1cnn(CCNCc2csc(-c3ccc4c(c3)OCO4)n2)c1`, 10.2%.
In the case of `Cc1nn(C)c(N(C)C)c1CNC1CCc2c(F)cccc21` (configuration not stated) it was 7.05%.
